One data set deals with T1, PARP1 (Homo sapiens, UniProt P09874).
T1 construct: purchased BPS 80501
Kind of data set: PARP1 enzyme assay (histone-coated plate, chemiluminescence). Type of data set: biochemical. To be noted: PARP1 0.02 nM, DNA 0.8 nM, NAD+ 3.5 µM; read-out: PARP-1 IC50.

Data set [1] is described as follows: Cerebrospinal fluid and plasma distribution in vivo. To be noted: rat, male rats, intravenous 5 mg/kg, n = 1. How it is done:
Experimental procedures: The compound was weighed out, a small amount of DMSO was added, and then a sodium chloride solution for injection was added to prepare a 5 mg·mL^-1 compound solution for later administration. […] 10 µL of the plasma and 10 µL of the cerebrospinal fluid were each added to a centrifuge tube, and 40 µL of acetonitrile containing 20 ng·mL^-1 internal standard SAHA was added for precipitation. […] The supernatant was collected and transferred to a sample vial for later analysis. Range of standard curve: 1-1000 ng·mL^-1.

A further data set has as its target T2, PARP6 (Homo sapiens, UniProt Q2NL67).
T2 construct: purchased BPS 80556
The data set is described as follows: Assay for selectivity for PARP6 (ELISA, chemiluminescence). The data set is classed as biochemical. How it is done:
Main instruments and reagents for PARP6 assay
Experimental procedures: The enzymatic activity of PARP6 was assayed by the ELISA method. […] The IC50 values of the compounds were calculated using the nonlinear fitting formula in GraphPad software.
In general terms: In an ELISA, binding on a coated surface is turned into a signal by an enzyme label.

Setting [2] is: cerebrospinal fluid, read-out: Cerebrospinal fluid.

pIC50: −log10 of the molar value. Like-named read-outs stand apart in the source and are kept apart here.

T2 sequence (Q2NL67 whole entry): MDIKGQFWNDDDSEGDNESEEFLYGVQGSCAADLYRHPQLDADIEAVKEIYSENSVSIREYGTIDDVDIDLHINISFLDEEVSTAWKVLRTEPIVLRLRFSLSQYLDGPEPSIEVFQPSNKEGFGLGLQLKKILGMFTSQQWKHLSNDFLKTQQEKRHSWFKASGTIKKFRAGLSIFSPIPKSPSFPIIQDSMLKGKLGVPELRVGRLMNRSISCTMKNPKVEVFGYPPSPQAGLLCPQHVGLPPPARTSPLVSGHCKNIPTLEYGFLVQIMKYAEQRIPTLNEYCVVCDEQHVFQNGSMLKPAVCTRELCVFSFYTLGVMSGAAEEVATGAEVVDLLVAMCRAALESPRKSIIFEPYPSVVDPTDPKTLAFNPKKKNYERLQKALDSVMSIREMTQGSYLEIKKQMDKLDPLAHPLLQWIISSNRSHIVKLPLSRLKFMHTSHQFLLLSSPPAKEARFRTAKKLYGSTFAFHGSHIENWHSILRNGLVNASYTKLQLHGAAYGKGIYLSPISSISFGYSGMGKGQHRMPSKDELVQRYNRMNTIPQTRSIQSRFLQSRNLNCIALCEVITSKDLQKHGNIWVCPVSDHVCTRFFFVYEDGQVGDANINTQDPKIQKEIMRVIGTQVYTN
T1 sequence (P09874 whole entry): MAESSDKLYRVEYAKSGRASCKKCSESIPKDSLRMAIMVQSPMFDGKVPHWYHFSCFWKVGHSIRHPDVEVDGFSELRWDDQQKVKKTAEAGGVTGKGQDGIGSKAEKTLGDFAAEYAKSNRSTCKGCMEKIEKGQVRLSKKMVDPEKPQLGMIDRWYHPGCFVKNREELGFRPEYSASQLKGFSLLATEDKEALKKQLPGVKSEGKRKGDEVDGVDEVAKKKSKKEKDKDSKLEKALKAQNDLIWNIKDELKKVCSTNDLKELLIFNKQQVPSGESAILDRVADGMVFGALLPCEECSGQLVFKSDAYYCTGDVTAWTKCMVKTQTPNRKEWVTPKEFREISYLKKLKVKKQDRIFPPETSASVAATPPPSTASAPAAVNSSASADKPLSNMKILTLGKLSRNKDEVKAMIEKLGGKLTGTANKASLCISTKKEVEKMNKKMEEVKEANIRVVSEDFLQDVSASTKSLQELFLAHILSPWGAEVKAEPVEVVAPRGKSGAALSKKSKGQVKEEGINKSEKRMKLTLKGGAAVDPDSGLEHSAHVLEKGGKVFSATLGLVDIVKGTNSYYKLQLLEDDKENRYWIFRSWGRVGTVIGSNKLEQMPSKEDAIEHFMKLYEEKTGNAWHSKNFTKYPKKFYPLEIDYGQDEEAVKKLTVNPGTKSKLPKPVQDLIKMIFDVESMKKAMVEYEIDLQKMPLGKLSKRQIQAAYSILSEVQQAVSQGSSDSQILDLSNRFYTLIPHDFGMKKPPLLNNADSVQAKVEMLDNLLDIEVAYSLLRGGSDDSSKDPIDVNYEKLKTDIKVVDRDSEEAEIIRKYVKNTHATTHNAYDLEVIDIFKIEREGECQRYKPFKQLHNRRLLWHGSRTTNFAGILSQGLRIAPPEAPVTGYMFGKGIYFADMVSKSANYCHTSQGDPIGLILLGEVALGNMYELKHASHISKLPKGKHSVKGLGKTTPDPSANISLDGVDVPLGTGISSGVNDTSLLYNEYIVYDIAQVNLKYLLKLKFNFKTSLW

For `CNC(=O)c1ccc(N2CCN(CC3Cc4[nH]c(=O)c(C(F)F)cc4CO3)CC2)c(F)n1` (stereo not shown) [Example 43, 5-(4-((3-(Difluoromethyl)-2-oxo-1,5,7,8-tetrahydro-2H-pyrano[4,3-b]pyridin-7-yl)methyl)piperazin-1-yl)-6-fluoro-N-methylpicolinamide], the pIC50 on PARP1 is 6.30 to 7.30; against PARP6, under 5.00. In addition, the concentration at 0.25 h in data set [1] (setting [2]) came out at 16 ng/g; in data set [1] (plasma, read-out: Plasma), 8030 ng/mL. Further, the concentration at 2 h turned out to be 3 ng/g in data set [1] (setting [2]) and 7690 ng/mL in data set [1] (plasma, read-out: Plasma). The “inhibitory effects on PARP6 (in words)” value at PARP6 (conclusion of Table 21) was “Conclusion: Compounds 2, 43, etc., of the present disclosure exhibited relatively weak inhibitory effects on PARP6, demonstrating high selectivity”.

The term pIC50 denotes the IC50 on a negative log10 scale, so that one unit is a factor of ten.

The values are drawn from patent EP4768487A1, “FUSED LACTAM RING COMPOUND AND USE THEREOF” (Chengdu Zenitar Biomedical Technology Co., Ltd., priority 2023, dated 2025).
